# Values of other authors, collected in patent EP3959200B1, “NEW TRIAZOLE AND TRIAZOLOTHIADIAZINE DERIVATIVES EXERTING CYTOTOXIC AND APOPTOTIC EFFECTS ON A549 CELLS THROUGH AKT INHIBITION” (Anadolu Universitesi, priority 2020, dated 2022).
# Where two headings read alike, the source gives them in different places.
# Key:
# [1] = test system: human HCC (HepG2) cell line; details: cited from earlier work
# HCC rats = details: cited from earlier work
# HeLa cell line = details: cited from earlier work
# HCT116 cell line = details: cited from earlier work
# PC-3 cell line = details: cited from earlier work
# [2] = test system: leukemia (MOLT-4) cell line; details: cited from earlier work
# [3] = test system: kidney cancer (OU-31) cell line; set-up: concentration or dose not given beside the values; details: cited from earlier work
# K562 cells = details: cited from earlier work
# PC-3 cells = details: cited from earlier work
# A549 = details: cited from earlier work
# [4] = target: alkaline phosphatase (ALP) enzyme; details: cited from earlier work
# [5] = test system: 60 cell lines derived from leukemia, non-small cell lung cancer, skin, ovarian, prostate and breast cancers; details: all cancer types tested; cited from earlier work
# [6] = test system: human breast cancer (MCF-7); details: cited from earlier work
# human lung cancer (A549) = details: cited from earlier work
# [7] = test system: human colon epithelial cells (HT-29); details: cited from earlier work
# [8] = test system: human cervical carcinoma (HeLa); details: cited from earlier work
# [9] = test system: human breast cancer (MCF-7); details: cited from earlier work; remark: listed apart in the source
# [10] = test system: ovarian carcinoma (SKOV3); details: cited from earlier work
# tubulin = tubulin polymerization; cited from earlier work
# [11] = test system: human lung adenocarcinoma (A549); details: cited from earlier work
# [12] = test system: breast adenocarcinoma (MCF-7); details: cited from earlier work
# [13] = test system: human hepatocellular carcinoma (HCC) cell line (HepG2); details: HepG2, MTT; cited from earlier work
# [14] = test system: leukemia (CCRF-CEM, RPMI-8226 and SR), non-small cell lung cancer (HOP-92), melanoma (UACC-62) and kidney cancer (UO-31) cells; details: across CCRF-CEM, RPMI-8226, SR, HOP-92, UACC-62, UO-31; cited from earlier work
# Ehrlich acid tumor (EAC) = details: 25 mg/kg, body weight; cited from earlier work
# Huh7 cell line = details: cited from earlier work
# lung cancer (H157) cells = details: cited from earlier work
# [15] = test system: normal fibroblast (WI38) cells; details: cited from earlier work
# [16] = test system: human gastric cancer (NUGC), human liver cancer (HA22T and HepG2), nasopharyngeal cancer (HONE1), human breast cancer (MCF); details: all other cancer cells tested except DLD1 cells; cited from earlier work
# [17] = test system: 60 cell lines derived from lung, colon, skin, kidney, ovarian, central nervous system and blood cancers; details: all cells tested; cited from earlier work
# [18] = test system: human epithelial cervical carcinoma (HeLa) cells; details: MTT; cited from earlier work
# [19] = test system: breast adenocarcinoma (MCF-7); details: MCF-7, MTT; read-out: LC50 (the source's name); cited from earlier work
# colon carcinoma (HCT116) = details: HCT116, MTT; read-out: LC50 (the source's name); cited from earlier work
# [20] = test system: lung cancer (H-157) cell line; details: cited from earlier work
# [21] = test system: kidney fibroblast (BHK-21) cells; details: cited from earlier work
smiles,measurement,setting,value
"O=C(CNNc1nnc2n1NC=C(c1ccccc1)S2)c1ccccc1 [1-phenyl-2-(2-(7-phenyl-5H-[1,2,4]triazolo[3,4-b][1,3,4]thiadiazine-3-yl)hydrazinyl)ethanone]",IC50,[1],19.6 µM
same,inhibition of hepatic tyrosine kinase (HTK) expression,HCC rats,45%
same,reduction of vascular endothelial growth factor (VEGF) level,HCC rats,30%
same,improvement of liver level of glutathione (GSH),HCC rats; compared to the HCC group,99%
same,improvement of liver level of lipid peroxides,HCC rats; compared to the HCC group,62%
"COc1cc(-c2nnc(SCC(=O)c3ccc(C)cc3)n2N)cc(OC)c1OC [2-(4-amino-5-(3,4,5-trimethoxyphenyl)-4H-1,2,4-triazole-3-ylthio)-1-(p-tolyl)ethanone]",IC50,HeLa cell line,2.94 µM
same,IC50,HCT116 cell line,0.37 µM
same,IC50,PC-3 cell line,31.3 µM
"O=C(CSc1nnc2n1N=C(c1ccc(Cl)cc1)CS2)c1ccc(F)cc1 [2-((6-(4-Chlorophenyl)-7H-[1,2,4]triazolo[3,4-b][1,3,4]thiadiazine-3-yl)thio-1-(4-fluorophenyl)ethanone]",growth,[2],49.82%
same,growth,[3],48.14%
"CC(=O)Nc1ccc(OCC2=NNC(SCC(=O)Nc3ccc(Br)cc3)N2Cc2ccccc2)cc1 (centres unmarked) [2-[(3-{[4-(acetylamino)phenoxy]methyl}-4-benzyl-4,5-dihydro-1H-1,2,4-triazole-5-yl)sulfanyl]-N-(4-bromophenyl)acetamide]",IC50,K562 cells,7.71 µM
"Cc1ccc(C(C)C)c(OCc2nnc(SCC(=O)Nc3ccc(S(N)(=O)=O)cc3)n2Cc2ccccc2)c1 [2-{ [3-[[5-Methyl-2-(propane-2-yl)phenoxy]methyl)-4-benzyl-4,5-dihydro-1H-1,2,4-triazole-5-yl]sulfanyl}-N-(4-sulfamoilphenyl)acetamide]",IC50,PC-3 cells,5.96 µM
"Cc1ccc(C(C)C)c(OCC2=NNC(SCC(=O)Nc3ccc(Cl)cc3)N2Cc2ccccc2)c1 (centres unmarked) [2-{[3-[[5-methyl-2-(propane-2-yl)phenoxy]methyl]-4-benzyl-4,5-dihydro-1H-1,2,4-triazole-5-yl]sulfanyl}-N-(4-chlorophenyl)acetamide]",IC50,A549,7.9 µM
"O=c1oc2ccccc2cc1C1=Nn2c(nnc2-c2cc3ccccc3oc2=O)SC1 [3,3'-(7/7-[1,2,4]Triazolo[3,4-b][1,3,4]thiadiazine-3,6-diyl)-bis(2H-chromen-2-one)]",IC50,[4],1.15 ± 1 µM
"Fc1cc(-c2nnc3n2N=C(c2ccc(Cl)cc2)CS3)c(Cl)cc1Cl [3-(2,4-Dichloro-5-fluorophenyl)-6-(4-chlorophenyl)-1,2,4-triazolo[3,4-b]-1,3,4-thiadiazine]",GI50,[5],1.06 to 25.4 µM
"CC(C)(c1ccc(Cl)cc1)c1nnc2n1N=C(c1ccc(OC(F)(F)F)cc1)CS2 [3-(2-(4-chlorophenyl)propane-2-yl)-6-(4-(trifluoromethoxy)phenyl)-7H-[1,2,4]triazolo[3,4-b] [1,3,4]thiadiazine]",IC50,[6],10.5 µM
same,IC50,human lung cancer (A549),18.2 µM
"CS(=O)(=O)c1ccc(Cc2nnc3n2N=C(c2ccccc2)CS3)cc1 [3-(4-(methylsulfonyl)benzyl)-6-phenyl-7H-[1,2,4]triazolo[3,4-b][1,3,4]thiadiazine]",IC50,[7],25 µM
"COc1ccc(-n2nc(-c3nnc(SCCCO)n3-c3ccccc3)cc2-c2ccccc2)cc1 [3-((5-(1-(4-Methoxyphenyl)-5-phenyl-1H-pyrazole-3-yl)-4-phenyl-4H-1,2,4-triazole-3-yl)thio)propane-1-ol]",IC50,[8],2.98 µM
same,IC50,[9],2.72 µM
"COc1cc(C2=Nn3c(nnc3-c3ccccc3)SC2)cc(OC)c1OC [3-phenyl-6-(3,4,5-trimethoxyphenyl)-7H-[1,2,4]triazolo[3,4-b][1,3,4]thiadiazine]",IC50,[10],4.63 ± 0.09 µM
same,IC50,tubulin,1.61 µM
same,IC50,[11],3.71 ± 0.13 µM
same,IC50,[12],0.7 ± 0.04 µM
"S=c1[nH]nc(OCc2ccccc2)n1N=Cc1c[nH]nc1-c1ccc(Cl)cc1 [4-((3-(4-chlorophenyl)-1H-pyrazole-4-methylene)amino)-5-(benzyloxy)-2,4-dihydro-1,2,4-triazole-3-thione]",IC50,[13],0.018 µM
"Cc1ccc(COc2nn(CN3CCOCC3)c(=S)n2N=Cc2c[nH]nc2-c2ccc(F)cc2)cc1 [4-((3-(4-fluorophenyl)-1H-pyrazole-4-methylene)amino)-2-(morpholinomethyl)-5-(4-methylbenzyloxy)-2,4-dihydro-1,2,4-triazole-3-thione]",IC50,[13],0.034 µM
"OC(c1ccccc1)c1nnc(SCc2ccccc2)n1Cc1ccccc1 (centres unmarked) [4-Benzyl-3-(benzylthio)-5-[hydroxy(phenyl)methyl]-4H-1,2,4-triazole]",antiproliferative activity,[14],25-58%
"Nn1c(S)nnc1-c1ccccc1Cl [4-amino-5-mercapto-3-(2-chlorophenyl)-1,2,4-triazole]",tumor cell inhibition (TCI),Ehrlich acid tumor (EAC),63.59%
"CCc1cccc2c3c([nH]c12)C(CC)(Cc1n[nH]c(=S)n1C)OCC3 (centres unmarked) [5-[(1,8-Diethyl-1,3,4,9-tetrahydropyrano[3,4-b]indole-1-yl)methyl]-4-methyl-2,4-dihydro-3H-1,2,4-triazole-3-thione]",IC50,Huh7 cell line,4.29 µM
O=c1[nH]cc(F)c(=O)[nH]1 [5-fluorouracil],IC50,HeLa cell line,57.2 µM
same,IC50,HCT116 cell line,68.7 µM
same,IC50,PC-3 cell line,57 µM
"Clc1ccc(C2=Nn3c(nnc3-c3cccnc3)SC2)cc1Cl [6-(3,4-dichlorophenyl)-3-(pyridine-3-yl)-7H-[1,2,4]triazolo[3,4-b][1,3,4]thiadiazine]",IC50,lung cancer (H157) cells,0.96 ± 0.43 µM
"COc1cc(-c2nnc3n2N=C(c2ccc(Br)cc2)CS3)cc(OC)c1OC [6-(4-bromophenyl)-3-(3,4,5-trimethoxyphenyl)-7H-[1,2,4]triazolo[3,4-b][1,3,4]thiadiazine]",IC50,[10],0.3 ± 0.65 µM
same,IC50,tubulin,1.03 µM
same,IC50,[11],3.15 ± 0.01 µM
same,IC50,[12],3.34 ± 0.02 µM
"CS(=O)(=O)c1ccc(Cc2nnc3n2N=C(c2ccc(-c4ccccc4)cc2)CS3)cc1 [6-(biphenyl-4-yl)-3-(4-(methylsulfonyl)benzyl)-7H-[1,2,4]triazolo[3,4-b][1,3,4]thiadiazine]",IC50,[7],12.5 µM
"c1ccc(C2=Nn3c(nnc3-c3ccncc3)SC2)cc1 [6-phenyl-3-(pyridine-4-yl)-7H-[1,2,4]triazolo[3,4-b][1,3,4]thiadiazine]",IC50,[15],> 10 µM
same,IC50,[16],< 0.8 µM
"Fc1cc(C2=Nn3c(COc4ccccc4Cl)nnc3SC2=Cc2ccc(Cl)cc2)c(Cl)cc1Cl [7-(4-chlorobenzylidene)-6-(2,4-dichloro-5-fluorophenyl)-3-((2-chlorophenoxy)methyl)-1,2,4-triazolo[3,4-b]-1,3,4-thiadiazine]",GI50,[17],< 10 µM
COc1cccc2c1C(=O)c1c(O)c3c(c(O)c1C2=O)C[C@@](O)(C(=O)CO)C[C@@H]3O[C@H]1C[C@H](N)[C@H](O)[C@H](C)O1 [doxorubicin],IC50,[8],8.72 µM
same,IC50,[1],36.3 µM
same,EC50,[18],2.5 µM
same,CC50,[19],26.1 µM
same,CC50,colon carcinoma (HCT116),37.7 µM
same,IC50,human lung cancer (A549),4.52 µM
CC[C@]1(O)C[C@H]2CN(CCc3c([nH]c4ccccc34)[C@@](C(=O)OC)(c3cc4c(cc3OC)N(C=O)[C@H]3[C@@](O)(C(=O)OC)[C@H](OC(C)=O)[C@]5(CC)C=CCN6CC[C@]43[C@@H]65)C2)C1 [vincristine],IC50,[20],1.03 ± 0.04 µM
same,IC50,lung cancer (H157) cells,1.03 ± 0.04 µM
same,inhibition,[21],74.5%
